Results published in US20140296479A1, “D-APTIDE AND RETRO-INVERSO APTIDE WITH MAINTAINED TARGET AFFINITY AND IMPROVED STABILITY” (GWANGJU INSTITUTE OF SCIENCE AND TECHNOLOGY, priority 2011, published 2014).
One block for each molecule: values may come before it. Where a SMILES comes first, the peptide text is derived from it. Where no end group is shown, it is not given here. [ ]: non-standard residue; d: D form.

Key:
[1] = target: HSA (Human serum albumin) (Homo sapiens, UniProt P02768); experiment: BIAcore X (SPR) affinity for HSA; assay type: binding; details: for kon: PBS pH 7.4, read-out: ka
Experimental: (§1) To investigate whether the activity is maintained where Aptamer-Like Peptides specifically binding to HSA (Human serum albumin), i.e., L-AptideHSA are converted into D- and Retro inverso (RI)-form, their affinity to a target was measured. Firstly, 3 peptides, L-AptideHSA ([…], all L-amino acids, SEQ ID NO:42), D-AptideHSA ([…], all D-amino acids, SEQ ID NO:42) and RI-AptideHSA ([…], all D-amino acids), were synthesized by Anigen Inc. (Korea). Their affinity for a target was determined using BIAcore X (Biacore AB, Uppsala, Sweden). HSA of 3000 RU was immobilized on CM5 chip (Biacore). A PBS (pH 7.4) was used as a running buffer, a flow rate was 30 μl/min, and the affinity was determined with BIAevaluation software (Biacore AB, Uppsala, Sweden) after measuring kinetics of various concentrations.

VEGF121 [2] = target: T1, VEGF121 (Homo sapiens, UniProt P15692); experiment: BIAcore X (SPR) affinity for VEGF; assay type: binding
T1 sequence (P15692 27-147 isoform P15692-9): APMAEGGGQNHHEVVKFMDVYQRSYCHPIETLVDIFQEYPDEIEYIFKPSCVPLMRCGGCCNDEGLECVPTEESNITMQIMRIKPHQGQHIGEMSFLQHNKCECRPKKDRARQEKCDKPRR
Experimental: as §1, with “VEGF (Vascular endothelial growth factor),” for “HSA (Human serum albumin),”, “L-Aptide1VEGF” for “L-AptideHSA”, “NO:23), D-Aptide1VEGF” for “NO:42), D-AptideHSA”, “NO:23)” for “NO:42)”, “RI-Aptide1VEGF” for “RI-AptideHSA”, “VEGF121” for “HSA”

fibronectin EDB = target: T2, fibronectin EDB (Homo sapiens, UniProt P02751); experiment: BIAcore X (SPR) affinity for fibronectin EDB; assay type: binding
T2 construct: Biotin-EDB of 2000 RU was immobilized on streptavidin SA chip
Experimental: To investigate whether the activity is maintained where Aptamer-Like Peptides specifically binding to fibronectin EDB, i.e., L-Aptide1EDB are converted into D- and Retro inverso (RI)-form, their affinity to a target was measured. Firstly, 3 peptides, L-Aptide1EDB ([…], all L-amino acids, SEQ ID NO:21), D-Aptide1EDB ([…], all D-amino acids, SEQ ID NO:21) and RI-Aptide1EDB ([…], all D-amino acids), were synthesized by Anigen Inc. (Korea). Their affinity for a target was determined using BIAcore X (Biacore AB, Uppsala, Sweden). Biotin-EDB of 2000 RU was immobilized on streptavidin SA chip (Biacore). A PBS (pH 7.4) was used as a running buffer, a flow rate was 30 μl/min, and the affinity was determined with BIAevaluation software (Biacore AB, Uppsala, Sweden) after measuring kinetics of various concentrations.

VEGF121 [3] = target: T3, VEGF121 (UniProt P15692-9 27-147); experiment: SPR, BIAcore X; VEGF121 on CM5 chip, peptide as analyte
T3 construct: VEGF121, 3000 RU, immobilised on a CM5 chip; also called Vascular endothelial growth factor
T3 sequence (looked up): T1 sequence (P15692 27-147 isoform P15692-9)
Experimental: To investigate whether the activity is maintained where Aptamer-Like Peptides specifically binding to VEGF (Vascular endothelial growth factor), i.e., L-Aptide1VEGF are converted into D- and Retro inverso (RI)-form, their affinity to a target was measured. Firstly, 3 peptides, L-Aptide1VEGF ([…], all L-amino acids, SEQ ID NO:23), D-Aptide1VEGF ([…], all D-amino acids, SEQ ID NO:23) and RI-Aptide1VEGF ([…], all D-amino acids), were synthesized by Anigen Inc. (Korea). Their affinity for a target was determined using BIAcore X (Biacore AB, Uppsala, Sweden). VEGF₁₂₁ of 3000 RU was immobilized on CM5 chip (Biacore).

[4] = target: T4, HSA (Human serum albumin) (human, UniProt P02768 25-609); experiment: SPR, BIAcore X; HSA on CM5 chip, peptide as analyte
T4 construct: HSA, 3000 RU, immobilised on a CM5 chip; also called HAS
Experimental: as §1, with “(Biacore).” for “(Biacore). A PBS (pH 7.4) was used as a running buffer, a flow rate was 30 μl/min, and the affinity was determined with BIAevaluation software (Biacore AB, Uppsala, Sweden) after measuring kinetics of various concentrations.”

[5] = VEGF121 on CM5 chip, PBS pH 7.4
[6] = biotin-EDB on SA chip, PBS pH 7.4

T4 sequence (P02768 25-609 limits assumed): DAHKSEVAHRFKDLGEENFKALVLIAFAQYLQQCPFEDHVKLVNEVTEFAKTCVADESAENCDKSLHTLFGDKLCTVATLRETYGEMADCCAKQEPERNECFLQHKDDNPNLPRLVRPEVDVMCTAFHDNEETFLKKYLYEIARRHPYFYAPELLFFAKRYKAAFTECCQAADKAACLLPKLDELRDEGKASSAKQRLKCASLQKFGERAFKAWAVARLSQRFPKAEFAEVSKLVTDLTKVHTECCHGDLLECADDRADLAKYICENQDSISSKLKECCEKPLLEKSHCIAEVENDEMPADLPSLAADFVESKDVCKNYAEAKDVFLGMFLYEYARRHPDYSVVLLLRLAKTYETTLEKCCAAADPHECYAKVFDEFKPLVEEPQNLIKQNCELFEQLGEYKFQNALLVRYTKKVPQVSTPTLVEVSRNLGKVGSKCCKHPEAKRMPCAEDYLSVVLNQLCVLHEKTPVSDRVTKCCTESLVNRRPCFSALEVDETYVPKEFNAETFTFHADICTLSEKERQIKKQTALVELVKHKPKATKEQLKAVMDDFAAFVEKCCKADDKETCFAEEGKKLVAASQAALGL

Molecule: CC[C@H](C)[C@H](NC(=O)CNC(=O)[C@H](CCCCN)NC(=O)[C@H](Cc1c[nH]c2ccccc12)NC(=O)[C@@H](NC(=O)[C@H](Cc1c[nH]c2ccccc12)NC(=O)[C@H](CCCCN)NC(=O)CNC(=O)[C@H](CC(N)=O)NC(=O)[C@H](CCC(=O)O)NC(=O)[C@H](Cc1c[nH]c2ccccc12)NC(=O)[C@@H](NC(=O)[C@H](Cc1c[nH]c2ccccc12)NC(=O)[C@H](CO)NC(=O)CNC(=O)[C@H](Cc1ccccc1)NC(=O)[C@H](CC(N)=O)NC(=O)[C@H](Cc1ccccc1)NC(=O)[C@H](Cc1c[nH]cn1)NC(=O)[C@H](C)NC(=O)[C@@H](N)Cc1c[nH]cn1)[C@@H](C)O)[C@@H](C)O)C(=O)N[C@@H](Cc1c[nH]c2ccccc12)C(=O)N[C@@H](CC(C)C)C(=O)N1CCC[C@H]1C(=O)N[C@@H](C)C(=O)N[C@@H](CCCNC(=N)N)C(=O)O [L-AptideHSA] (H-HAHFNFGSWTWENGKWTWKGIWLPAR-OH; N-terminus and C-terminus assumed)
kd ([1]; HSA on CM5 chip, PBS pH 7.4): 0.013 s⁻¹ | kon ([1]; HSA on CM5 chip): 95000 M⁻¹ s⁻¹

Molecule: CC[C@@H](C)[C@@H](NC(=O)[C@@H](Cc1c[nH]c2ccccc12)NC(=O)[C@@H](CC(C)C)NC(=O)[C@H]1CCCN1C(=O)[C@@H](C)NC(=O)[C@H](N)CCCNC(=N)N)C(=O)NCC(=O)N[C@H](CCCCN)C(=O)N[C@H](Cc1c[nH]c2ccccc12)C(=O)N[C@@H](C(=O)N[C@H](Cc1c[nH]c2ccccc12)C(=O)N[C@H](CCCCN)C(=O)NCC(=O)N[C@H](CC(N)=O)C(=O)N[C@H](CCC(=O)O)C(=O)N[C@H](Cc1c[nH]c2ccccc12)C(=O)N[C@@H](C(=O)N[C@H](Cc1c[nH]c2ccccc12)C(=O)N[C@H](CO)C(=O)NCC(=O)N[C@H](Cc1ccccc1)C(=O)N[C@H](CC(N)=O)C(=O)N[C@H](Cc1ccccc1)C(=O)N[C@H](Cc1c[nH]cn1)C(=O)N[C@H](C)C(=O)N[C@H](Cc1c[nH]cn1)C(=O)O)[C@H](C)O)[C@H](C)O [RI-AptideHSA] (H-[dR][dA][dP][dL][dW][dI]G[dK][dW][dT][dW][dK]G[dN][dE][dW][dT][dW][dS]G[dF][dN][dF][dH][dA][dH]-OH; N-terminus and C-terminus assumed)
Kd ([1]; HSA on CM5 chip, PBS pH 7.4): 141 nM | kd ([1]; HSA on CM5 chip, PBS pH 7.4): 0.0082 s⁻¹ | kon ([1]; HSA on CM5 chip): 58000 M⁻¹ s⁻¹ | binding to target, in words ([1]; compared with L-Aptide): affinity similar to L-Aptide

Molecule: CC[C@@H](C)[C@@H](NC(=O)CNC(=O)[C@@H](CCCCN)NC(=O)[C@@H](Cc1c[nH]c2ccccc12)NC(=O)[C@H](NC(=O)[C@@H](Cc1c[nH]c2ccccc12)NC(=O)[C@@H](CCCCN)NC(=O)CNC(=O)[C@@H](CC(N)=O)NC(=O)[C@@H](CCC(=O)O)NC(=O)[C@@H](Cc1c[nH]c2ccccc12)NC(=O)[C@H](NC(=O)[C@@H](Cc1c[nH]c2ccccc12)NC(=O)[C@@H](CO)NC(=O)CNC(=O)[C@@H](Cc1ccccc1)NC(=O)[C@@H](CC(N)=O)NC(=O)[C@@H](Cc1ccccc1)NC(=O)[C@@H](Cc1c[nH]cn1)NC(=O)[C@@H](C)NC(=O)[C@H](N)Cc1c[nH]cn1)[C@H](C)O)[C@H](C)O)C(=O)N[C@H](Cc1c[nH]c2ccccc12)C(=O)N[C@H](CC(C)C)C(=O)N1CCC[C@@H]1C(=O)N[C@H](C)C(=O)N[C@H](CCCNC(=N)N)C(=O)O [D-AptideHSA] (H-[dH][dA][dH][dF][dN][dF]G[dS][dW][dT][dW][dE][dN]G[dK][dW][dT][dW][dK]G[dI][dW][dL][dP][dA][dR]-OH; N-terminus and C-terminus assumed)
kd ([1]; HSA on CM5 chip, PBS pH 7.4): 0.014 s⁻¹ | kon ([1]; HSA on CM5 chip): 97000 M⁻¹ s⁻¹

binding to target, in words (VEGF121 [2]): barely bound | Kd (VEGF121 [2]; [5]): Non-binding | ka (VEGF121 [2]; [5]): Non-binding | kd (VEGF121 [2]; [5]): Non-binding
Molecule: SQNYKWGKWTWKGNEWTWSGQFFNAH [RI-Aptide1VEGF]

Molecule: CC[C@@H](C)[C@@H](NC(=O)[C@@H](CCCNC(=N)N)NC(=O)[C@@H](CC(C)C)NC(=O)[C@@H](CCC(=O)O)NC(=O)[C@H](N)CCC(N)=O)C(=O)N[C@@H](C(=O)NCC(=O)N[C@H](CCCCN)C(=O)N[C@H](Cc1c[nH]c2ccccc12)C(=O)N[C@@H](C(=O)N[C@H](Cc1c[nH]c2ccccc12)C(=O)N[C@H](CCCCN)C(=O)NCC(=O)N[C@H](CC(N)=O)C(=O)N[C@H](CCC(=O)O)C(=O)N[C@H](Cc1c[nH]c2ccccc12)C(=O)N[C@@H](C(=O)N[C@H](Cc1c[nH]c2ccccc12)C(=O)N[C@H](CO)C(=O)NCC(=O)N[C@@H](C(=O)N[C@H](C)C(=O)N[C@H](CO)C(=O)N[C@H](CO)C(=O)N[C@H](CS)C(=O)N[C@H](Cc1c[nH]cn1)C(=O)O)C(C)C)[C@H](C)O)[C@H](C)O)[C@H](C)CC [RI-Aptide1EDB] (H-[dQ][dE][dL][dR][dI][dI]G[dK][dW][dT][dW][dK]G[dN][dE][dW][dT][dW][dS]G[dV][dA][dS][dS][dC][dH]-OH; N-terminus and C-terminus assumed)
Kd (fibronectin EDB; [6]): 58 nM | koff (dissociation rate constant) (fibronectin EDB; [6]): 0.0011 s⁻¹ | kon (fibronectin EDB; biotin-EDB on SA chip, PBS pH 7.4, read-out: ka): 19000 M⁻¹ s⁻¹ | binding to target, in words (fibronectin EDB; compared with L-Aptide): affinity similar to L-Aptide

Kd (VEGF121 [3]): 30 nM | koff (VEGF121 [3]): 0.01 s⁻¹
B1: L-Aptide1VEGF (designed binder)
peptide: HANFFQGSWTWENGKWTWKGWKYNQS
notes: Synthetic 26-mer, all L-amino acids; also called L-AptideVEGF; Aptide1VEGF (L-form)

Kd [4]: 153 nM | koff [4]: 0.014 s⁻¹
Molecule: [dH][dA][dH][dF][dN][dF]G[dS][dW][dT][dW][dE][dN]G[dK][dW][dT][dW][dK]G[dI][dW][dL][dP][dA][dR] (designed binder) [D-AptideHSA]

koff (VEGF121 [3]): 0.0066 s⁻¹
Molecule: [dH][dA][dN][dF][dF][dQ]G[dS][dW][dT][dW][dE][dN]G[dK][dW][dT][dW][dK]G[dW][dK][dY][dN][dQ][dS] (designed binder) [D-Aptide1VEGF]

koff [4]: 0.0082 s⁻¹
Molecule: [dR][dA][dP][dL][dW][dI]G[dK][dW][dT][dW][dK]G[dN][dE][dW][dT][dW][dS]G[dF][dN][dF][dH][dA][dH] (designed binder) [RI-AptideHSA]

Kd [4]: 142 nM | koff [4]: 0.013 s⁻¹
B2: L-AptideHSA (designed binder)
peptide: HAHFNFGSWTWENGKWTWKGIWLPAR
notes: Synthetic 26-mer, all L-amino acids; also called AptideHSA (L-form)
